Test results reported in EP4603105A1, “PHARMACEUTICAL COMPOSITION CONTAINING CYCLIC COMPOUND HAVING SELECTIVE KRAS INHIBITORY EFFECT AGAINST HRAS AND NRAS” (CHUGAI SEIYAKU KABUSHIKI KAISHA, priority 2022, dated 2024).
Where a SMILES comes first, the peptide text is derived from it. Bridges are numbered along the chain shown (N, C = ends). [ ]: non-standard residue; d: D form. The star is where a group is joined. hPhe(3-Cl-4-CF3) = N[C@@H](CCc1ccc(C(F)(F)F)c(Cl)c1)C(=O)O; NPrPhe(4-CF3) = CCCN[C@@H](Cc1ccc(C(F)(F)F)cc1)C(=O)O; NMeGly(cPent) = CN[C@H](C(=O)O)C1CCCC1; Pro(4,4-F2) = O=C(O)[C@@H]1CC(F)(F)CN1; Pro(4,4-Me2) = CC1(C)CN[C@H](C(=O)O)C1; Pro(4S-Me) = C[C@@H]1CN[C@H](C(=O)O)C1; NMeD = CN[C@@H](CC(=O)O)C(=O)O; NMeL = CN[C@@H](CC(C)C)C(=O)O; Morpholide = C1CN(*)CCO1; Ac5c = NC1(C(=O)O)CCCC1; Aze = O=C(O)[C@@H]1CCN1; Ac4c = NC1(C(=O)O)CCC1; Sar = CNCC(=O)O

Experiments:
[1] = molecular target: GDP-bound NRAS wild-type protein (Homo sapiens, UniProt P01111); experiment: Binding to NRAS by surface plasmon resonance (SPR), KD and KD ratio to KRAS; conditions: ratio of the KD value with respect to GDP-bound NRAS wild-type protein to the KD value with respect to KRAS
GDP-bound NRAS wild-type protein, sequence (P01111 whole entry): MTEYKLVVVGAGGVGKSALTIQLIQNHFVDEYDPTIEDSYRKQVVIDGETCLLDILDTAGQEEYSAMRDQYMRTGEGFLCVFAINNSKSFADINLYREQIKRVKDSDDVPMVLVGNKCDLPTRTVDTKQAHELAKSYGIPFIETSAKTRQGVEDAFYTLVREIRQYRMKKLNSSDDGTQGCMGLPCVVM
Summary of the method: (§1)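 GDP-loaded biotinylated Avi-tag RAS proteins (E. coli-expressed) captured on a Biotin CAPture chip at ~100–300 RU; single-cycle kinetics at 30°C, 100 µL/min, 75 s injections of rising compound concentrations. HBS pH 7.4 running buffer with 1 mM DTT, 10 mM MgCl2, 10 µM GDP, 4% DMSO. KD from 1:1 binding fit.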

[2] = molecular target: HRAS wild-type protein (Homo sapiens, UniProt P01112); experiment: Binding to HRAS by surface plasmon resonance (SPR), KD and KD ratio to KRAS; conditions: ratio of the KD value with respect to HRAS wild-type protein to the KD value with respect to KRAS
HRAS wild-type protein, sequence (P01112 whole entry): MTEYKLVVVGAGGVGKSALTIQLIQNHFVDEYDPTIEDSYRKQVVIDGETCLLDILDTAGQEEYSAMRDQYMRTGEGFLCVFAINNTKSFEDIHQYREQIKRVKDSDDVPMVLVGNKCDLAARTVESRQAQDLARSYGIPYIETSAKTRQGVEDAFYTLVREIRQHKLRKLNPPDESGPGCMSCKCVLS
Summary of the method: as §1

[3] = test system: human lung cancer strain NCI-H441; assay type: cell-based
Summary of the method: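 Readout: […] after the ATP-based reagent. Compound: serial dilutions in dimethyl sulfoxide.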

[4] = molecular target: GDP-bound KRAS wild-type protein (Homo sapiens, UniProt P01116); experiment: Binding to KRAS by surface plasmon resonance (SPR), dissociation constant KD; conditions: Single Cycle Kinetics, 1:1 binding model
GDP-bound KRAS wild-type protein, sequence (P01116 1-188 isoform P01116-2): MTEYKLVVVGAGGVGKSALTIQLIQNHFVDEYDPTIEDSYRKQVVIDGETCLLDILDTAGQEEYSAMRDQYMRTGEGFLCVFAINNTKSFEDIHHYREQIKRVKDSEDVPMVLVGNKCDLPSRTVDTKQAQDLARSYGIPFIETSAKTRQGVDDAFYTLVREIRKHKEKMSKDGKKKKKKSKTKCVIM
Summary of the method: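 SPR, 30°C: Avi-biotin RAS·GDP captured via Biotin CAPture (~100–300 RU); running buffer HBS pH 7.4, 1 mM DTT, 10 mM MgCl2, 0.01% Tween 20, 10 µM GDP, 4% DMSO. Single-cycle kinetics, 100 µL/min, 75 s injections; 1:1 model → KD.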

Structure (SMILES)	NRAS /KRAS [1]	HRAS /KRAS [2]	IC50 [3]	Kd [4]
CCCN1C(=O)CN(C)C(=O)[C@@H]2CCN2C(=O)[C@H]([C@@H](C)CC)NC(=O)[C@H](CC(C)C)N(C)C(=O)C[C@@H](C(=O)N2CCOCC2)N(C)C(=O)[C@H](C2CCCC2)N(C)C(=O)C2(CCC2)NC(=O)[C@@H]2CC(F)(F)CN2C(=O)[C@H](CCc2ccc(C(F)(F)F)c(Cl)c2)NC(=O)CN(C)C(=O)[C@@H]1Cc1ccc(C(F)(F)F)cc1 [PP0404] ([NMeL]I[Aze][Sar][NPrPhe(4-CF3)][Sar][hPhe(3-Cl-4-CF3)][Pro(4,4-F2)][Ac4c][NMeGly(cPent)][NMeD]-Morpholide; lactam N-11)	B (a compound having 3 or more and less than 10 is denoted as B)	C (A compound having a KD ratio of 0.1 or more and less than 3 is denoted as C)	21.7 nM	0.37 nM
CCCN1C(=O)CN(C)C(=O)[C@@H]2CCN2C(=O)[C@H]([C@@H](C)CC)NC(=O)[C@H](CC(C)C)N(C)C(=O)C[C@@H](C(=O)N(C)C)N(C)C(=O)[C@H](C2CCCC2)N(C)C(=O)C2(CCCC2)NC(=O)[C@@H]2CCCN2C(=O)[C@H](CCc2ccc(C(F)(F)F)c(Cl)c2)NC(=O)CN(C)C(=O)[C@@H]1Cc1ccc(C(F)(F)F)cc1 [PP0429] ([NMeL]I[Aze][Sar][NPrPhe(4-CF3)][Sar][hPhe(3-Cl-4-CF3)]P[Ac5c][NMeGly(cPent)][NMeD]-NMe2; lactam N-11)	B (a compound having 3 or more and less than 10 is denoted as B)	C (A compound having a KD ratio of 0.1 or more and less than 3 is denoted as C)	12.4 nM	0.39 nM
CCCN1C(=O)CN(C)C(=O)[C@@H]2CCN2C(=O)[C@H]([C@@H](C)CC)NC(=O)[C@H](CC(C)C)N(C)C(=O)C[C@@H](C(=O)N(C)C)N(C)C(=O)[C@H](C2CCCC2)N(C)C(=O)C2(CCCC2)NC(=O)[C@@H]2CC(F)(F)CN2C(=O)[C@H](CCc2ccc(C(F)(F)F)c(Cl)c2)NC(=O)CN(C)C(=O)[C@@H]1Cc1ccc(C(F)(F)F)cc1 [PP0431] ([NMeL]I[Aze][Sar][NPrPhe(4-CF3)][Sar][hPhe(3-Cl-4-CF3)][Pro(4,4-F2)][Ac5c][NMeGly(cPent)][NMeD]-NMe2; lactam N-11)	B (a compound having 3 or more and less than 10 is denoted as B)	C (A compound having a KD ratio of 0.1 or more and less than 3 is denoted as C)	9.9 nM	0.35 nM
CCCN1C(=O)CN(C)C(=O)[C@@H]2CCN2C(=O)[C@H]([C@@H](C)CC)NC(=O)[C@H](CC(C)C)N(C)C(=O)C[C@@H](C(=O)N(C)C)N(C)C(=O)[C@H](C2CCCC2)N(C)C(=O)C2(CCC2)NC(=O)[C@@H]2CC(F)(F)CN2C(=O)[C@H](CCc2ccc(C(F)(F)F)c(Cl)c2)NC(=O)CN(C)C(=O)[C@@H]1Cc1ccc(C(F)(F)F)cc1 [PP0432] ([NMeL]I[Aze][Sar][NPrPhe(4-CF3)][Sar][hPhe(3-Cl-4-CF3)][Pro(4,4-F2)][Ac4c][NMeGly(cPent)][NMeD]-NMe2; lactam N-11)	B (a compound having 3 or more and less than 10 is denoted as B)	B (a compound having 3 or more and less than 10 is denoted as B)	10.7 nM	0.17 nM
CCCN1C(=O)CN(C)C(=O)[C@@H]2CCN2C(=O)[C@H]([C@@H](C)CC)NC(=O)[C@H](CC(C)C)N(C)C(=O)C[C@@H](C(=O)N2CCOCC2)N(C)C(=O)[C@H](C2CCCC2)N(C)C(=O)C2(CCCC2)NC(=O)[C@@H]2CC(C)(C)CN2C(=O)[C@H](CCc2ccc(C(F)(F)F)c(Cl)c2)NC(=O)CN(C)C(=O)[C@@H]1Cc1ccc(C(F)(F)F)cc1 [PP0452] ([NMeL]I[Aze][Sar][NPrPhe(4-CF3)][Sar][hPhe(3-Cl-4-CF3)][Pro(4,4-Me2)][Ac5c][NMeGly(cPent)][NMeD]-Morpholide; lactam N-11)	B (a compound having 3 or more and less than 10 is denoted as B)	B (a compound having 3 or more and less than 10 is denoted as B)	34.1 nM	0.73 nM
CCCN1C(=O)CN(C)C(=O)[C@@H]2CCN2C(=O)[C@H]([C@@H](C)CC)NC(=O)[C@H](CC(C)C)N(C)C(=O)C[C@@H](C(=O)N2CCOCC2)N(C)C(=O)[C@H](C2CCCC2)N(C)C(=O)C2(CCCC2)NC(=O)[C@@H]2C[C@H](C)CN2C(=O)[C@H](CCc2ccc(C(F)(F)F)c(Cl)c2)NC(=O)CN(C)C(=O)[C@@H]1Cc1ccc(C(F)(F)F)cc1 [PP0453] ([NMeL]I[Aze][Sar][NPrPhe(4-CF3)][Sar][hPhe(3-Cl-4-CF3)][Pro(4S-Me)][Ac5c][NMeGly(cPent)][NMeD]-Morpholide; lactam N-11)	B (a compound having 3 or more and less than 10 is denoted as B)	C (A compound having a KD ratio of 0.1 or more and less than 3 is denoted as C)	20.3 nM	1.2 nM
CC[C@H](C)[C@@H]1NC(=O)[C@H](CC(C)C)N(C)C(=O)C[C@@H](C(=O)N2CCOCC2)N(C)C(=O)[C@H](C2CCCC2)N(C)C(=O)C2(CCCC2)NC(=O)[C@@H]2CCCN2C(=O)[C@H](CCc2ccc(C(F)(F)F)c(Cl)c2)NC(=O)CN(C)C(=O)[C@H](Cc2ccc(C)cc2)N2CC=CC[C@@H](C2=O)N(C)C(=O)CN(C)C1=O [PP0460]	C (A compound having a KD ratio of 0.1 or more and less than 3 is denoted as C)	C (A compound having a KD ratio of 0.1 or more and less than 3 is denoted as C)	5.4 nM	0.14 nM
CCO[C@@H]1C[C@H]2C(=O)NC3(CCC3)C(=O)N(C)[C@@H](C3CCCC3)C(=O)N(C)[C@H](C(=O)N(C)C)CC(=O)N(C)[C@@H](CC(C)C)C(=O)N[C@@H]([C@@H](C)CC)C(=O)N(C)CC(=O)N(C)[C@H]3CCCCCN(C3=O)[C@@H](Cc3ccc(C(F)(F)F)cc3)C(=O)N(C)CC(=O)N[C@@H](CCc3cc(F)c(C(F)(F)F)c(F)c3)C(=O)N2C1 [PP0469]	B (a compound having 3 or more and less than 10 is denoted as B)	B (a compound having 3 or more and less than 10 is denoted as B)	36.1 nM	0.76 nM
CC[C@H](C)[C@@H]1NC(=O)[C@H](CC(C)C)N(C)C(=O)C[C@@H](C(=O)N2CCOCC2)N(C)C(=O)[C@H](C2CCCC2)N(C)C(=O)[C@](C)(CC)NC(=O)[C@@H]2CCCN2C(=O)[C@H](CCc2cc(F)c(C(F)(F)F)c(F)c2)NC(=O)CN(C)C(=O)[C@H](Cc2ccc(C(F)(F)F)cc2)N2CCCCC[C@@H](C2=O)N(C)C(=O)CN(C)C1=O [PP0500]	B (a compound having 3 or more and less than 10 is denoted as B)	B (a compound having 3 or more and less than 10 is denoted as B)	963 nM	18 nM
CC[C@H](C)[C@@H]1NC(=O)[C@H](CC(C)C)N(C)C(=O)C[C@@H](C(=O)N2CCOCC2)N(C)C(=O)[C@H](C2CCC2)N(C)C(=O)C2(CCCC2)NC(=O)[C@@H]2CCCN2C(=O)[C@H](CCc2cc(F)c(C(F)(F)F)c(F)c2)NC(=O)CN(C)C(=O)[C@H](Cc2ccc(C(F)(F)F)cc2)N2CCCCC[C@@H](C2=O)N(C)C(=O)CN(C)C1=O [PP0504]	B (a compound having 3 or more and less than 10 is denoted as B)	B (a compound having 3 or more and less than 10 is denoted as B)	235 nM	14 nM
CC[C@H](C)[C@@H]1NC(=O)[C@H](CC(C)C)N(C)C(=O)C[C@@H](C(=O)N2C3CCC2COC3)N(C)C(=O)[C@H](C2CCCC2)N(C)C(=O)C2(CCCC2)NC(=O)[C@@H]2CCCN2C(=O)[C@H](CCc2cc(F)c(C(F)(F)F)c(F)c2)NC(=O)CN(C)C(=O)[C@H](Cc2ccc(C(F)(F)F)cc2)N2CCCCC[C@@H](C2=O)N(C)C(=O)CN(C)C1=O [PP0511]	A (a compound having 10 or more and less than 20 is denoted as A)	B (a compound having 3 or more and less than 10 is denoted as B)	414 nM	16 nM
CC[C@H](C)[C@@H]1NC(=O)[C@H](CC(C)C)N(C)C(=O)C[C@@H](C(=O)N2CCOCC2)N(C)C(=O)[C@H](C2CCCC2)N(C)C(=O)C2(CCCC2)NC(=O)[C@@H]2CCCN2C(=O)[C@H](CCc2ccc(C(F)(F)F)c(Cl)c2)NC(=O)CN(C)C(=O)[C@H](Cc2ccccc2)N2CC=CC[C@@H](C2=O)N(C)C(=O)CN(C)C1=O [PP0528]	C (A compound having a KD ratio of 0.1 or more and less than 3 is denoted as C)	C (A compound having a KD ratio of 0.1 or more and less than 3 is denoted as C)	21.8 nM	0.37 nM
CC[C@H](C)[C@@H]1NC(=O)[C@H](CC(C)C)N(C)C(=O)C[C@@H](C(=O)N2CCOCC2)N(C)C(=O)[C@H](C2CCCC2)N(C)C(=O)C2(CCCC2)NC(=O)[C@@H]2CCCN2C(=O)[C@H](CCc2ccc(C(F)(F)F)c(Cl)c2)NC(=O)CN(C)C(=O)[C@H](Cc2ccccc2)N2CCCC[C@@H](C2=O)N(C)C(=O)CN(C)C1=O [PP0529]	C (A compound having a KD ratio of 0.1 or more and less than 3 is denoted as C)	B (a compound having 3 or more and less than 10 is denoted as B)	6.5 nM	0.095 nM
CC[C@H](C)[C@@H]1NC(=O)[C@H](CC(C)C)N(C)C(=O)C[C@@H](C(=O)N2CCOCC2)N(C)C(=O)[C@H](C2CCCC2)N(C)C(=O)C2(CCCC2)NC(=O)[C@@H]2CCCN2C(=O)[C@H](CCc2ccc(C(F)(F)F)c(Cl)c2)NC(=O)CN(C)C(=O)[C@H](Cc2ccc(F)cc2)N2CCCC[C@@H](C2=O)N(C)C(=O)CN(C)C1=O [PP0530]	C (A compound having a KD ratio of 0.1 or more and less than 3 is denoted as C)	B (a compound having 3 or more and less than 10 is denoted as B)	7 nM	0.06 nM
